Test results reported in patent US20230203016A1, “DICARBOXYLIC ACID BISAMIDE DERIVATIVES, USE THEREOF, PHARMACEUTICAL COMPOSITION BASED THEREON AND METHODS FOR PRODUCING DICARBOXYLIC ACID BISAMIDE DERIVATIVES” (TREAMID THERAPEUTICS GMBH, priority 2013, published 2023).

Key:
[1] = Stability constants of complexes with zinc ions by pH-metric titration, Bjerrum method; assay type: physicochemical; details: aqueous solution, CL = 0.02M, M^z+/L = 1:6, ion strength 0.5 (KNO3), 22° C.; for The first stability constant, lgK1 (zinc ions) / The second stability constant, lgK2 (zinc ions) / The third stability constant, lgK3 (zinc ions): Table 5; for The first stability constant of complexes with 1:1 compositions, lgK1, Zn (II): Table 4
Protocol: (§1) Initial 0.05 M solutions of M^z+ metal ions were prepared from nitrates of zinc (Zn(NO3)2·6H2O), calcium (Ca(NO3)2·4H2O), copper sulfate (CuSO4·5H2O), magnesium chloride (MgCl2·6H2O) and Mohr's salt ((NH4)2Fe(SO4)2·6H2O). Standardization of the initial solutions of M^z+ salts was performed by a complexometric titration method with trilon B (M^z+=Zn^2+, Cu^2+, Mg^2+, Ca^2+) and a spectrophotometric method at 490 nm by using o-phenanthroline (M^z+=Fe^2+).
(§2) Given the parameters, such as the amount of a studied compound required for potentiometric titration, a testing procedure and a constant calculation method, the Bjerrum method is most suitable and informative [Yu. P. Galaktionov, M. A. Chistyakov, V. G. Sevastiyanov, etc., “Step Stability Constants of Group IIIB Metal and Lanthanide Complexes with Acetylacetone in Aqueous Solution and the Solubility Products of Metal Triacetylacctonates”, Journal of physical chemistry, 2004, v. 78, No. 9, pp. 1596-1604].
(§3) The method is based on the view that the process of complex formation is stepwise. A main assumption of the Bjerrum method is an assumption about the formation of only […] complexes. The process of complex formation can be schematically described as follows:
(§4) According to the Bjerrum method, a studied compound is titrated with a NaOH solution twice: in the absence of and in the presence of a metal ion. The titration is performed under a high constant concentration of an indifferent electrolyte, which provides the solution with a constant ionic strength.
(§5) For these purposes, highly soluble salts are used, for example, sodium and potassium salts. Concentration step stability constants (Kn) are determined from experiments. In addition, the method provides information concerning the composition of a formed complex, in particular, the maximum possible number of bound ligands (n).
(§6) Traditional procedure for determining step stability constants for complexes by the Bjerrum method of pH-metric titration was performed as follows.
(§7) A sample of a studies compound (3·10^−4 mol) was dissolved in 14.0 ml of a 0.5M aqueous KNO3 solution. One ml of a 0.05M aqueous solution of an M^z+ salt was added under vigorous stirring. The systems were studied with a M^z+/L ratio of 1:6. The pH value of a solution was fixed for coexisting ligands and metal ions. The mixture was titrated with a 0.05M NaOH aqueous solution within a broad range of pH values (up to pH 11.0-11.5). The amount of the used titrant (VNaOH, ml) and the pH value of the solution were registered in each titration point. At the moment when a residue formed, the solution became turbid, or the color of the solution changed, the pH value, the nature of the change and the amount of NaOH spent for the titration were registered. The step of titration was 0.25 ml. The value of lgKn was determined by the Bjerrum curve n=f(pA) for each semi-integer value of the function of complex formation n=n−0.5.
Today the Bjerrum method is frequently used to study complex formation processes. This method provides for the determination of two parameters: the concentration of a free ligand under equilibrium conditions ([L^−]) and the function of complex formation n which is the average number of ligands involved in the complex. Thus, using experimental data, the value [L^−] can be calculated for each time point of the titration (in particular, −lg[L^−]=pA), and n can be calculated by equation (1). When a ligand has several dissociating groups, the KL value in equation (1) matches the value of the dissociation constant with the largest pk value.
The Kn value is found from the Bjerrum curve (curve of the complex formation) n=f(pA) plotted according to equation (2) for each semi-integer value (n=n−0.5) of the function of the complex formation. Thus, the step stability constant will be equal to the reciprocal concentration of a free ligand at a point of n=n−0.5. […]

[2] = Acid dissociation constants (pk) by pH-potentiometric titration, Schwarzenbach method; assay type: physicochemical; details: aqueous solution, C = 0.02M, ionic strength 0.5 (KNO3), 22° C.; for pk1: titration with 0.05M HCl aqueous solution (footnote 1); for pk2: titration with 0.05M aqueous NaOH solution (footnote 2)
Protocol: An important property of a ligand to form a complex is dissociation constants (pkn) of studied compounds in an aqueous solution. The pkn values are determined by a potentiometric titration method. The calculation of dissociation constants are performed by the Schwarzenbach method [Grinberg A. A., “An introduction to the chemistry of complex compounds”, fourth ed., Amend., L., Khimiya, 1971].
Titration was performed on an apparatus by using a laboratory ionomer I 120.1. A designed galvanic cell consisted of two electrodes, in particular an indicator glass electrode and a silver chloride comparison electrode. The pH value was measured with an accuracy of ±0.2.
A traditional method for determining acid dissociation step constants (k1, . . . , kn) by using pH-metric titration is the Schwarzenbach method.
A sample of a studied compound (3·10^−4 mol) was dissolved in 15.0 ml of a 0.5M aqueous KNO3 solution. The obtained […] solution was titrated with a 0.05M aqueous solution of NaOH or HCl under stirring. The amount (V, ml) of the used titrant and the pH value of the solution were registered in each titration point. A titration step was equal to 0.5 ml, and 0.2 ml in the proximity to the equivalency point. Titration was continued until the pH value of the solution reached 11.0 to 11.5. The pH value of the solution corresponding to a=0.5 and/or a=1.5 was determined by the titration curve pH=f(a), and the amount of added gram-equivalents of the titrant was calculated in terms of 1 mole of a titrated compound.

[3] = First stability constant of complexes with copper ions by pH-metric titration, Bjerrum method; assay type: physicochemical; details: aqueous solution, CL = 0.02M; M^z+/L = 1:6; ion strength 0.5 (KNO3), 22° C.
Protocol: as §1, §2, §3, §4, §5, §6
(§8) A sample of a studies compound (3·10^−4 mol) was dissolved in 14.0 ml of a 0.5M aqueous KNO3 solution. One ml of a 0.05M aqueous solution of an M^z+ salt was added under vigorous stirring. The systems were studied with a M^z+/L ratio of 1:6. The pH value of a solution was fixed for coexisting ligands and metal ions. […] The value of lgKn was determined by the Bjerrum curve n=f(pA) for each semi-integer value of the function of complex formation n=n−0.5.
(§9) Today the Bjerrum method is frequently used to study complex formation processes. […] Thus, using experimental data, the value [L^−] can be calculated for each time point of the titration (in particular, −lg[L^−]=pA), and n can be calculated by equation (1). […]

[4] = First stability constant of complexes with Fe (II) by pH-metric titration, Bjerrum method; assay type: physicochemical; details: aqueous solution, CL = 0.02M; M^z+/L = 1:6; ion strength 0.5 (KNO3), 22° C.
Protocol: as §1, §2, §3, §4, §5, §6, §8, §9

[5] = First stability constant of complexes with Fe (III) by pH-metric titration, Bjerrum method; assay type: physicochemical; details: aqueous solution, CL = 0.02M; M^z+/L = 1:6; ion strength 0.5 (KNO3), 22° C.
Source text: as §2, §3, §4, §5, §6, §7, §9

[6] = First stability constant of complexes with magnesium ions by pH-metric titration, Bjerrum method; assay type: physicochemical; details: aqueous solution, CL = 0.02M; M^z+/L = 1:6; ion strength 0.5 (KNO3), 22° C.
Protocol: as §1, §2, §3, §4, §5, §6, §8, §9

[7] = First stability constant of complexes with calcium ions by pH-metric titration, Bjerrum method; assay type: physicochemical; details: aqueous solution, CL = 0.02M; M^z+/L = 1:6; ion strength 0.5 (KNO3), 22° C.
Protocol: as §1, §2, §3
According to the Bjerrum method, a studied compound is titrated with a NaOH solution twice: in the absence of and in the presence of a metal ion. […]
For these purposes, highly soluble salts are used, for example, sodium and potassium salts. Concentration step stability constants (Kn) are determined from experiments. […]
A sample of a studies compound (3·10^−4 mol) was dissolved in 14.0 ml of a 0.5M aqueous KNO3 solution. […] The value of lgKn was determined by the Bjerrum curve n=f(pA) for each semi-integer value of the function of complex formation n=n−0.5.
as §9

[8] = Study of the chelating ability (summary statements on complex formation); assay type: physicochemical; details: statement in words

The first stability constant, lgK1 (zinc ions) [1]	The second stability constant, lgK2 (zinc ions) [1]	The third stability constant, lgK3 (zinc ions) [1]	pk1 [2]	pk2 [2]	The first stability constant of complexes with 1:1 compositions, lgK1, Zn (II) [1]	The first stability constant of complexes with 1:1 compositions, lgK1, Cu (II) [3]	The first stability constant of complexes with 1:1 compositions, lgK1, Fe (II) [4]	The first stability constant of complexes with 1:1 compositions, lgK1, Fe (III) [5]	The first stability constant of complexes with 1:1 compositions, lgK1, Mg (II) [6]	The first stability constant of complexes with 1:1 compositions, lgK1, Ca (II) [7]	melting point [°C]	Structure (SMILES)	ability to form complexes with or chelate metal ions [8]
5.40	5.05	3.80	6.88	11.27^(2)	5.40	5.32	5.95	6.59	4.36	4.57	230 to 231	O=C(CCC(=O)NCCc1cnc[nH]1)NCCc1cnc[nH]1 [Compound 3, N,N′-bis-[2-(1H-imidazol-4-yl)ethyl]butanediamide]	
5.62	5.15	4.04										O=C(NCCc1c[nH]cn1)c1cccc(C(=O)NCCc2c[nH]cn2)c1 [Compound 6, Bis-1,3-(N^β-histaminyl)isophthalic acid]	
6.25	5.80	5.05										O=C(CCCC(=O)NCCc1nccs1)NCCc1nccs1 [Compound 8]	
5.50	5.24	4.48										O=C(CCCC(=O)NCCc1ncc[nH]1)NCCc1ncc[nH]1 [Compound 10]	
5.05	4.70	2.87	7.16^(1)	11.89^(2)	5.05	4.39	6.27	6.60	2.82		166 to 168	O=C(CCCC(=O)NCCc1cnc[nH]1)NCCc1cnc[nH]1 [Compound 11, N,N′-bis-[2-(1H-imidazol-4-yl)ethyl]pentanediamide]	capable of forming complexes with metal ions
5.46	5.03	3.38	7.13^(1)	11.95^(2)	5.46	4.62	6.40	6.10	3.72	3.60	184 to 186	O=C(CCCCC(=O)NCCc1cnc[nH]1)NCCc1cnc[nH]1 [Compound 12, N,N′-bis-[2-(1H-imidazol-4-yl)ethyl]hexanediamide]	

Structure (SMILES)	The first stability constant, lgK1 (zinc ions) [1]	The second stability constant, lgK2 (zinc ions) [1]	The third stability constant, lgK3 (zinc ions) [1]	pk1 [2]	pk2 [2]	The first stability constant of complexes with 1:1 compositions, lgK1, Zn (II) [1]	The first stability constant of complexes with 1:1 compositions, lgK1, Cu (II) [3]	The first stability constant of complexes with 1:1 compositions, lgK1, Fe (II) [4]	The first stability constant of complexes with 1:1 compositions, lgK1, Fe (III) [5]	The first stability constant of complexes with 1:1 compositions, lgK1, Mg (II) [6]	The first stability constant of complexes with 1:1 compositions, lgK1, Ca (II) [7]	melting point [°C]	ability to form complexes with or chelate metal ions [8]
O=C(NCCc1cnc[nH]1)C(=O)NCCc1cnc[nH]1 [Compound 1, N,N′-bis-[2-(1H-imidazol-4-yl)ethyl]ethanediamide]	4.52	4.21	3.75										
O=C(CC(=O)NCCc1cnc[nH]1)NCCc1cnc[nH]1 [Compound 2, N,N′-bis-[2-(1H-imidazol-4-yl)ethyl]propanediamide]	4.84	4.50	2.60	7.11^(1)	11.27^(2)	4.84	4.17	5.08	5.29	2.59	2.06		
